In patent US6685935B1 (priority 1995, dated 2004):
Where two headings read alike, the source gives them in different places.

Tests used:
C57B6 mice = details: mouse, in vivo, ip
[1] = tested on: B16F10 melanoma in C57B6 mice; format: in vivo, mouse
Experimental: C57B6 mice were inoculated s.c., left shoulder region, with […] B16F10 melanoma cells from culture. […] At 18 days post-tumor implantation (10 days post bacterial inoculation) all animals were given enrofloxacin antibiotic, 0.2 mg/ml, in their drinking water (BAYTRIL™) and maintained with this antibiotic supplement for 2 weeks. Tumor growth was assessed by caliper measurements and computed as volume in mm^3. Animals were euthanized and listed as dead when the sum of their tumor measurements, length+width+height, reached 60 mm, or when they became moribund (listless, cessation of drinking).
C57B6 female mice, 5-7 weeks old, were inoculated s.c. in the left shoulder region with 5×10^5 B16F10 melanoma cells grown in culture. […] Tumor growth was assessed with periodic caliper measurements of tumor length, width and height, and computed as tumor volume in mm^3. Results of tumor growth, shown in FIGS. 16A-D represent the averages±SD for 5 animals/group with 5/5 animals surviving. After the point at which one or more animals died within a group, the average tumor sizes of the surviving animals were no longer shown when the data were plotted as shown in FIGS. 16A-D.
The animals were allowed to eat and drink ad libitum. Twenty-three days (Experiment #1) or 10 days (Experiment #2) following inoculation of bacteria, both control and bacteria treated mice were given Baytril™ (enrofloxacin, 0.2 mg/ml drinking water) and maintained on this antibiotic for a total of 2 weeks. In Experiment #1 the times at which the mice became moribund (listless, cessation of drinking) or died, were noted. The results are presented in Table 20(F) as the average survival±SD for the conditions tested. In Experiment #2 animals were sacrificed when the tumor reached 4 g and listed with the other dead as described in Experiment #1. The two different methods for assessing survival accounted for a somewhat shorter survival time for control animals in Experiment #2 (26 days) as compared to Experiment #1 (28 days).

B16F10 melanoma cells = format: cell-based, mouse
Experimental: FIG. 11-F is a graph showing the growth of B16F10 melanoma cells in monolayer culture in the presence or absence of ganciclovir at 10 μg/ml or 25 μg/ml.

[2] = tested on: Cloudman S91 melanoma/macrophage hybrid #48 tumors in DBA/2J mice

SMILES | Avg. time of Death ± S.D. (C57B6 mice) [days] | Time Days ± S.D. ([1]; GCV 3.75 mg, no bacteria) [days] | Treated/Control T/C ([1]; GCV 3.75 mg, no bacteria) | effect on tumor volume ([1]; GCV 3.75 mg-10 mg/mouse days 11-12, no bacteria) | proliferation of B16F10 melanoma cells in culture (B16F10 melanoma cells; GCV 10 μg/ml) | proliferation of B16F10 melanoma cells in culture (B16F10 melanoma cells; GCV 25 μg/ml) | side-effects of ganciclovir treatment ([2]; 2.5 mg i.p. four times over 3 days, no bacteria) | Mean Tumor Doubling Time ([2]; 3×10^5 c.f.u. bacteria i.p., ganciclovir 2.0 mg, 6 inoculations over 5 days) [h]
CCN1CCN(c2cc3c(cc2F)c(=O)c(C(=O)O)cn3C2CC2)CC1 [enrofloxacin, 1-cyclopropyl-7-(4-ethyl-1-piperazinyl)-6-fluoro-1,4-dihydro-4-oxo-3-quinolinecarboxylic acid] | >21 | – | – | – | – | – | – | –
Nc1nc(O)c2ncn(COC(CO)CO)c2n1 [ganciclovir, ganciclovir sodium] | – | 27 ± 1 | 1.1 | small reduction in tumor volume | not | significantly suppressed | little or no side-effects | 94
